Reference: the kinase profiling compilation of Christmann-Franck et al. (2016)

What was measured:
Assay in all cases: radiometric filter-binding kinase assay
[1] = target: INSR (human) (UniProt P06213)
[2] = target: MAPK15 (human) (UniProt Q8TD08)
[3] = target: EPHA2 (human) (UniProt P29317)
[4] = target: MAP2K1 (human) (UniProt Q02750)
[5] = target: CaMK1 (human) (UniProt Q14012)
[6] = target: NUAK1 (human) (UniProt O60285)
[7] = test system: LCK (mouse); conditions: accession and sequence are those of the human protein
[8] = target: BRSK1 (human) (UniProt Q8TDC3)
[9] = target: MARK1 (human) (UniProt Q9P0L2)
[10] = target: PHKG1 (human) (UniProt Q16816)
Chain of PHKG1 (human) (Q16816 whole entry, looked up): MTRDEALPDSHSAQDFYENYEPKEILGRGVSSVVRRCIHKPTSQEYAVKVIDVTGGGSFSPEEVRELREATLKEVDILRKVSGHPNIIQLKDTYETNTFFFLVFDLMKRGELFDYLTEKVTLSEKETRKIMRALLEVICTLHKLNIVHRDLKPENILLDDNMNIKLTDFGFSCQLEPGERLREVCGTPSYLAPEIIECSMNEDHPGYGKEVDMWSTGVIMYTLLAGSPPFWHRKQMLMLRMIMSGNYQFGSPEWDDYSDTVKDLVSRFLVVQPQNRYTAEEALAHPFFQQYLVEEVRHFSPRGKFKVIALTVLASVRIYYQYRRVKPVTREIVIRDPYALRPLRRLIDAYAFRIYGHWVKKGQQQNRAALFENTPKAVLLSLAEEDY

[11] = target: MINK1 (human) (UniProt Q8N4C8)
[12] = target: HIPK3 (human) (UniProt Q9H422)
[13] = target: EPHA4 (human) (UniProt P54764)
Chain of EPHA4 (human) (P54764 whole entry, looked up): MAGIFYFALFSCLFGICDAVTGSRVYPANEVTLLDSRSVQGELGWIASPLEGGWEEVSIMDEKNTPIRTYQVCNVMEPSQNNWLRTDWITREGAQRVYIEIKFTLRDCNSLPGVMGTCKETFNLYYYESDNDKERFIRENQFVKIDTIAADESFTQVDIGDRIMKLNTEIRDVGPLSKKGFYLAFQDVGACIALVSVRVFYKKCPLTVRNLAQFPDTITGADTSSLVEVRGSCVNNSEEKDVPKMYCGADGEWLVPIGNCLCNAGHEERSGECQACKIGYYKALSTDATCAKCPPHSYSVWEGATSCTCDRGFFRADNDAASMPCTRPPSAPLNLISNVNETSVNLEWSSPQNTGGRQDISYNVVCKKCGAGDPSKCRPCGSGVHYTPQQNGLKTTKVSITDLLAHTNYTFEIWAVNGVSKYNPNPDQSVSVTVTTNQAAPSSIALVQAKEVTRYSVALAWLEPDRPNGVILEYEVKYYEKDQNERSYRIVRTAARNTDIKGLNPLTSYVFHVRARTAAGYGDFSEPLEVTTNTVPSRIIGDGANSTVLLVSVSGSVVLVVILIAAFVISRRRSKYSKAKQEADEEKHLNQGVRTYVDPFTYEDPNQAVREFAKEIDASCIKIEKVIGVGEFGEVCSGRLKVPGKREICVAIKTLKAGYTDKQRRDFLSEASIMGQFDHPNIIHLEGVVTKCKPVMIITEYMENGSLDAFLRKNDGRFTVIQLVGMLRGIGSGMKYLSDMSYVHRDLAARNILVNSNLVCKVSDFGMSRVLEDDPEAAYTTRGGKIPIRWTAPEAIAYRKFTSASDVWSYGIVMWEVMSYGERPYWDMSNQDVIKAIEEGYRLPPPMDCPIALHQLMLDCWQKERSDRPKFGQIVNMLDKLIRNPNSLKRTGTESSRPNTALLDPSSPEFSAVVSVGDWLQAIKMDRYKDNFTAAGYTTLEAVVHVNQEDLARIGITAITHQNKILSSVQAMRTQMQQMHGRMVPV

[14] = target: EPHB2 (human) (UniProt P29323)
[15] = target: PRKACA (human) (UniProt P17612); conditions: compound 1.0 µM
[16] = target: JAK2 JH1 JH2 (human) (UniProt O60674)
[17] = target: BTK (human) (UniProt Q06187)
[18] = target: NEK2 (human) (UniProt P51955)
[19] = target: RPS6KA5 KD1 KD2 (human) (UniProt O75582)
[20] = target: MARK2 (human) (UniProt Q7KZI7)
Chain of MARK2 (human) (Q7KZI7 whole entry, looked up): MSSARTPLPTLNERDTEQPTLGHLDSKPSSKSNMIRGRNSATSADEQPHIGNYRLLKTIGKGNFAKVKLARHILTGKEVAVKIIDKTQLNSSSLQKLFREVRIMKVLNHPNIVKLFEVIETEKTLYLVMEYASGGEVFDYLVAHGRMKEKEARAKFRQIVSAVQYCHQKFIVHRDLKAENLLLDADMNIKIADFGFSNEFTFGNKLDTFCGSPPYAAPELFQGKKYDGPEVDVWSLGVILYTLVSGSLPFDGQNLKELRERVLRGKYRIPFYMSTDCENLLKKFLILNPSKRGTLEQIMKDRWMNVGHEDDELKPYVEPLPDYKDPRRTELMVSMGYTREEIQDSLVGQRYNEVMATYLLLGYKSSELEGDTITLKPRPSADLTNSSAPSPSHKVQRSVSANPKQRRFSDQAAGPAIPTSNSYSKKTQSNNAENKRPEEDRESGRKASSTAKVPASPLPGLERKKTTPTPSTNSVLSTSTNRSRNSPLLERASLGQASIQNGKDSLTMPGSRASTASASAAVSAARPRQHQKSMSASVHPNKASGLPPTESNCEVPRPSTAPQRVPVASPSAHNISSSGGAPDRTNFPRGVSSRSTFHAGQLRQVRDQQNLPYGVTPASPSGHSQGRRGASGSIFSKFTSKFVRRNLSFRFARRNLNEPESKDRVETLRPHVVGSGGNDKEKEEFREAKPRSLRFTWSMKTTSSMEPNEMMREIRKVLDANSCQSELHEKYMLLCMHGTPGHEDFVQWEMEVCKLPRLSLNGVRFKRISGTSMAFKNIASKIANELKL

[21] = target: MST4 (human) (UniProt Q9P289)
Chain of MST4 (human) (Q9P289 whole entry, looked up): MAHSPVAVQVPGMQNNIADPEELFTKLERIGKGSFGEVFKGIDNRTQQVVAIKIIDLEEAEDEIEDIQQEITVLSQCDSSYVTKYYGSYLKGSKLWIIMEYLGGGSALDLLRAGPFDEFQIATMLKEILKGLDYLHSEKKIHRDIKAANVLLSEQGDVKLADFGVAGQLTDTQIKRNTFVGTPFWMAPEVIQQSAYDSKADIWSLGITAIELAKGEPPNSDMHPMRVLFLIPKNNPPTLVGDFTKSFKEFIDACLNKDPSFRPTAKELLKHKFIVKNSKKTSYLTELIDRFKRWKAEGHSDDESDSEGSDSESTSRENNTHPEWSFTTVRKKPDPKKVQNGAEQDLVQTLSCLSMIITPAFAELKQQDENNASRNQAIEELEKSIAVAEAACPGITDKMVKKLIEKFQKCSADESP

[22] = target: INSRR (human) (UniProt P14616)
[23] = target: MAPKAPK2 (human) (UniProt P49137)
[24] = target: NEK6 (human) (UniProt Q9HC98)
Chain of NEK6 (human) (Q9HC98 whole entry, looked up): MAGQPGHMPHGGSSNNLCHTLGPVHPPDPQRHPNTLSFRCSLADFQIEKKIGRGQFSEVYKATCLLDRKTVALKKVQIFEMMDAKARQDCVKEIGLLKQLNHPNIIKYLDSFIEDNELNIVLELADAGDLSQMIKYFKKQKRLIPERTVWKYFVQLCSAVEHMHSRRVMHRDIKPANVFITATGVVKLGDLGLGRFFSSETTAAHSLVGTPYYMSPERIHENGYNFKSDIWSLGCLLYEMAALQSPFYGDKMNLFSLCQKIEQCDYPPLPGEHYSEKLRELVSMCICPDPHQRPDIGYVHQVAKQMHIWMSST

[25] = target: CSK (human) (UniProt P41240)
[26] = target: PAK7 (human) (UniProt Q9P286)
[27] = target: MKNK1 (human) (UniProt Q9BUB5)
Chain of MKNK1 (human) (Q9BUB5 whole entry, looked up): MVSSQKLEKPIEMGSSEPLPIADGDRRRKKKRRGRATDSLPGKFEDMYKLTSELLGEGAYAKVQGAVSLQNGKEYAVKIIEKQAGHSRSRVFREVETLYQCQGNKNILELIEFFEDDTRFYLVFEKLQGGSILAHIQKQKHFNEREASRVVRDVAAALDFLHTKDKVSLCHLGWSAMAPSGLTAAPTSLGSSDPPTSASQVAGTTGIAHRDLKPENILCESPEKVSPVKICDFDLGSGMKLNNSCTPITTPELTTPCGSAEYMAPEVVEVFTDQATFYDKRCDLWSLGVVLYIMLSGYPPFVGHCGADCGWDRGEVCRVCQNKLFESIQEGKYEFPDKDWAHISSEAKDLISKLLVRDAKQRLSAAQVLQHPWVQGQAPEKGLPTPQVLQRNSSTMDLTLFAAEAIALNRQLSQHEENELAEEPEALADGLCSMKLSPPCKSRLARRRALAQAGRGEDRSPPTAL

[28] = target: CAMKK2 (human) (UniProt Q96RR4)
[29] = target: RIPK2 (human) (UniProt O43353)
Chain of RIPK2 (human) (O43353 whole entry, looked up): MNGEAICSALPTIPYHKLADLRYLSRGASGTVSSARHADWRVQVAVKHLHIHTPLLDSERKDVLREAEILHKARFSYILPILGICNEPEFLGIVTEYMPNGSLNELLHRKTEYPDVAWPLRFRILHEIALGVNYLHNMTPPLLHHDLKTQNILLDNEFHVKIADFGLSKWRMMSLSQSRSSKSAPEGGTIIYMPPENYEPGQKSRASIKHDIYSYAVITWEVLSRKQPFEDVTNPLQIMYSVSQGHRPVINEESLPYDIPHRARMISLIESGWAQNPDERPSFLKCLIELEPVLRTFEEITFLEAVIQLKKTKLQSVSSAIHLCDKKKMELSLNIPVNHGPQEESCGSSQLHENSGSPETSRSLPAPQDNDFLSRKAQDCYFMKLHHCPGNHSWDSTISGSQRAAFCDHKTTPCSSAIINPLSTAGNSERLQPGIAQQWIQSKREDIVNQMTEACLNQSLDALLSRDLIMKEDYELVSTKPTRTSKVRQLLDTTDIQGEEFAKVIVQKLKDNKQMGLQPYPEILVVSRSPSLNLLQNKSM

[30] = target: ERBB4 (human) (UniProt Q15303)
[31] = target: DYRK2 (human) (UniProt Q92630)
Chain of DYRK2 (human) (Q92630 whole entry, looked up): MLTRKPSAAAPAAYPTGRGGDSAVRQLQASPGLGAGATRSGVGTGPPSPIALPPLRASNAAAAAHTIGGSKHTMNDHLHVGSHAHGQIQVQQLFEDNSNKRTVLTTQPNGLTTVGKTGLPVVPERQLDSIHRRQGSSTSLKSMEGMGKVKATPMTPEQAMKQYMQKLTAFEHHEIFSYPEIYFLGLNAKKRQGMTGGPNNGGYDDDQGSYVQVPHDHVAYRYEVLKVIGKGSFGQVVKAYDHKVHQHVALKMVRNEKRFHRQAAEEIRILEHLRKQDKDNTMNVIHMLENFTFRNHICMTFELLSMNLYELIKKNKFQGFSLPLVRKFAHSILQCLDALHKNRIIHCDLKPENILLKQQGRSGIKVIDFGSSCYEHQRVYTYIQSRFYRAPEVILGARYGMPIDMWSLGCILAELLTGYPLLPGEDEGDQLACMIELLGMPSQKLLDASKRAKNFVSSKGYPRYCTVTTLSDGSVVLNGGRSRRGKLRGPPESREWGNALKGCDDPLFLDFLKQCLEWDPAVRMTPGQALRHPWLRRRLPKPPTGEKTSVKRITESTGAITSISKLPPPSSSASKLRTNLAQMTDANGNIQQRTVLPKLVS

[32] = target: CDK2 CCNA2 (human) (UniProt P20248+P24941)
[33] = test system: PRKAA1 or PRKAA2 (rat); conditions: accession and sequence are those of the human protein
[34] = target: PRKCA (human) (UniProt P17252)
[35] = target: SRPK1 (human) (UniProt Q96SB4)

Chain of MAP2K1 (human) (Q02750 whole entry, looked up): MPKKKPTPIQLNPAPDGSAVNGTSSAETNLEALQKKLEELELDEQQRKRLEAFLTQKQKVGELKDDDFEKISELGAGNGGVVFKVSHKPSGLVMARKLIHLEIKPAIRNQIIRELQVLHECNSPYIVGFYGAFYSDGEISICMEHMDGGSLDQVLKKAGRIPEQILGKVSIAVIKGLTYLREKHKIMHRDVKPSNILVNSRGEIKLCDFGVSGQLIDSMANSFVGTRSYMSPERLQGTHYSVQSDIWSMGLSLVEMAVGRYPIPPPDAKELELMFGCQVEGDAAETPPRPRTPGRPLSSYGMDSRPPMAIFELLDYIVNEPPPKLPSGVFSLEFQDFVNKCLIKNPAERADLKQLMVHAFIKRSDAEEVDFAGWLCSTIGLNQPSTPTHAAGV

CCNc1nc(Nc2cc(F)c(C(=O)N3CCOCC3)cc2OC)ncc1C(F)(F)F
residual activity ([1]; compound 1.0 µM): 19% | residual activity ([1]; compound 10.0 µM): 2% | residual activity ([2]; compound 1.0 µM): 96% | residual activity ([2]; compound 10.0 µM): 78% | residual activity ([3]; compound 1.0 µM): 107% | residual activity ([3]; compound 10.0 µM): 86% | residual activity ([4]; compound 1.0 µM): 95% | residual activity ([4]; compound 10.0 µM): 75% | residual activity ([5]; compound 1.0 µM): 74% | residual activity ([5]; compound 10.0 µM): 27% | residual activity ([6]; compound 1.0 µM): 13% | residual activity ([6]; compound 10.0 µM): 2% | residual activity ([7]; compound 1.0 µM): 108% | residual activity ([7]; compound 10.0 µM): 101% | residual activity ([8]; compound 1.0 µM): 82% | residual activity ([8]; compound 10.0 µM): 50% | residual activity ([9]; compound 1.0 µM): 97% | residual activity ([9]; compound 10.0 µM): 58% | residual activity ([10]; compound 1.0 µM): 23% | residual activity ([10]; compound 10.0 µM): 3% | residual activity ([11]; compound 1.0 µM): 115% | residual activity ([11]; compound 10.0 µM): 93% | residual activity ([12]; compound 1.0 µM): 107% | residual activity ([12]; compound 10.0 µM): 98% | residual activity ([13]; compound 1.0 µM): 97% | residual activity ([13]; compound 10.0 µM): 76% | residual activity ([14]; compound 1.0 µM): 110% | residual activity ([14]; compound 10.0 µM): 100% | residual activity [15]: 96% | residual activity ([16]; compound 1.0 µM): 72% | residual activity ([16]; compound 10.0 µM): 35% | residual activity ([17]; compound 1.0 µM): 131% | residual activity ([17]; compound 10.0 µM): 90% | residual activity ([18]; compound 1.0 µM): 99% | residual activity ([18]; compound 10.0 µM): 92% | residual activity ([19]; compound 1.0 µM): 91% | residual activity ([19]; compound 10.0 µM): 49% | residual activity ([20]; compound 1.0 µM): 98% | residual activity ([20]; compound 10.0 µM): 73% | residual activity ([21]; compound 1.0 µM): 86% | residual activity ([21]; compound 10.0 µM): 74% | residual activity ([22]; compound 1.0 µM): 90% | residual activity ([22]; compound 10.0 µM): 67% | residual activity ([23]; compound 1.0 µM): 107% | residual activity ([23]; compound 10.0 µM): 85% | residual activity ([24]; compound 1.0 µM): 103% | residual activity ([24]; compound 10.0 µM): 84% | residual activity ([25]; compound 1.0 µM): 101% | residual activity ([25]; compound 10.0 µM): 94% | residual activity ([26]; compound 1.0 µM): 95% | residual activity ([26]; compound 10.0 µM): 56% | residual activity ([27]; compound 1.0 µM): 92% | residual activity ([27]; compound 10.0 µM): 45% | residual activity ([28]; compound 1.0 µM): 28% | residual activity ([28]; compound 10.0 µM): 7% | residual activity ([29]; compound 1.0 µM): 86% | residual activity ([29]; compound 10.0 µM): 74% | residual activity ([30]; compound 1.0 µM): 97% | residual activity ([30]; compound 10.0 µM): 70% | residual activity ([31]; compound 1.0 µM): 50% | residual activity ([31]; compound 10.0 µM): 17% | residual activity ([32]; compound 1.0 µM): 102% | residual activity ([32]; compound 10.0 µM): 79% | residual activity ([33]; compound 1.0 µM): 75% | residual activity ([33]; compound 10.0 µM): 56% | residual activity ([34]; compound 1.0 µM): 95% | residual activity ([34]; compound 10.0 µM): 97% | residual activity ([35]; compound 1.0 µM): 79% | residual activity ([35]; compound 10.0 µM): 68%
